The source made the active and inactive calls.
How the values were obtained:
[1] = target: Mitogen-activated protein kinase 10 (Homo sapiens, UniProt P53779); experiment: Dose response biochemical screening assay for inhibitors of c-Jun N-Terminal Kinase 3 (JNK3). [Related pubchem assays: 746 ]
[2] = general cell-killing toxicity readout – plate reader, dry powder samples, cytotoxicity control for PAX8 inhibitor project, dose response (AID 743021); format: functional, cell-based
Vero = experiment: viability of Vero cells under compound – cytotoxicity control for flavivirus capping enzyme inhibitors (AID 588742); format: functional; details: Chlorocebus sabaeus
[3] = viability loss in THP-1 monocytes – THP-1 cells, cytotoxicity control for Vif-APOBEC3G degradation inhibitor project, dose response (AID 1117359); format: functional; details: THP-1
[4] = target: T1, Tyrosyl-DNA phosphodiesterase 2 (Homo sapiens, UniProt O95551); experiment: potency against TDP2 phosphodiesterase activity – biochemical, epi absorbance, IC50, dose response (AID 743297)
T1 sequence (O95551 whole entry): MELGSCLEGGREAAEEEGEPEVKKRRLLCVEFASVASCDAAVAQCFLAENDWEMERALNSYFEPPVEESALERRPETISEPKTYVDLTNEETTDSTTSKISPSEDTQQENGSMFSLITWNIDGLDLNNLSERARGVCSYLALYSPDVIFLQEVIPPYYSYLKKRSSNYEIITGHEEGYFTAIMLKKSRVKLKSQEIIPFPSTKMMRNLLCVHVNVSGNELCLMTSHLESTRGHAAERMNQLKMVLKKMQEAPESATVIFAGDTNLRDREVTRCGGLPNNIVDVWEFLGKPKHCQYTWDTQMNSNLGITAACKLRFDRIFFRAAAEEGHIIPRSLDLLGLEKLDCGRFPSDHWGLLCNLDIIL

[5] = target: Peroxisome proliferator-activated receptor gamma/Nuclear receptor coactivator 2 (Homo sapiens, UniProt P37231); experiment: (§1) TR-FRET dose response biochemical High Throughput Screening assay for agonists of the steroid receptor coactivator 2 (SRC-2) recruitment by the peroxisome proliferator-activated receptor gamma (PPAR gamma): non-selective agonists. [Related pubchem assays: 1297, 1032 ]; format: functional
Chain of Peroxisome proliferator-activated receptor gamma/Nuclear receptor coactivator 2 (P37231 whole entry): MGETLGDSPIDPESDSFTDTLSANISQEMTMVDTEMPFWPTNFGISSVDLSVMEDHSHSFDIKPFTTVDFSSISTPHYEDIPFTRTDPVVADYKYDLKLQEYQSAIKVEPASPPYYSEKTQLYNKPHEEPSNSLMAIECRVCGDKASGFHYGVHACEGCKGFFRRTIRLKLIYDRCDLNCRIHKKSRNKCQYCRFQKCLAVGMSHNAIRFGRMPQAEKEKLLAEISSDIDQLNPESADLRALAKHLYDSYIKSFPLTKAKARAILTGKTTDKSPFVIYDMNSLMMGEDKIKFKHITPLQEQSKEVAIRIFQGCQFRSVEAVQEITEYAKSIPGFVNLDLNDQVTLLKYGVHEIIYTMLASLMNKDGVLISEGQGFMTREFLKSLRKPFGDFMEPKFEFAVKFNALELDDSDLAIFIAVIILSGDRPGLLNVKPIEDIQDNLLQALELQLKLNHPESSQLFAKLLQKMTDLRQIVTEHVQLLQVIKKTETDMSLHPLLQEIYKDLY
Chain of Peroxisome proliferator-activated receptor gamma/Nuclear receptor coactivator 2 (Q15596 whole entry, further chain): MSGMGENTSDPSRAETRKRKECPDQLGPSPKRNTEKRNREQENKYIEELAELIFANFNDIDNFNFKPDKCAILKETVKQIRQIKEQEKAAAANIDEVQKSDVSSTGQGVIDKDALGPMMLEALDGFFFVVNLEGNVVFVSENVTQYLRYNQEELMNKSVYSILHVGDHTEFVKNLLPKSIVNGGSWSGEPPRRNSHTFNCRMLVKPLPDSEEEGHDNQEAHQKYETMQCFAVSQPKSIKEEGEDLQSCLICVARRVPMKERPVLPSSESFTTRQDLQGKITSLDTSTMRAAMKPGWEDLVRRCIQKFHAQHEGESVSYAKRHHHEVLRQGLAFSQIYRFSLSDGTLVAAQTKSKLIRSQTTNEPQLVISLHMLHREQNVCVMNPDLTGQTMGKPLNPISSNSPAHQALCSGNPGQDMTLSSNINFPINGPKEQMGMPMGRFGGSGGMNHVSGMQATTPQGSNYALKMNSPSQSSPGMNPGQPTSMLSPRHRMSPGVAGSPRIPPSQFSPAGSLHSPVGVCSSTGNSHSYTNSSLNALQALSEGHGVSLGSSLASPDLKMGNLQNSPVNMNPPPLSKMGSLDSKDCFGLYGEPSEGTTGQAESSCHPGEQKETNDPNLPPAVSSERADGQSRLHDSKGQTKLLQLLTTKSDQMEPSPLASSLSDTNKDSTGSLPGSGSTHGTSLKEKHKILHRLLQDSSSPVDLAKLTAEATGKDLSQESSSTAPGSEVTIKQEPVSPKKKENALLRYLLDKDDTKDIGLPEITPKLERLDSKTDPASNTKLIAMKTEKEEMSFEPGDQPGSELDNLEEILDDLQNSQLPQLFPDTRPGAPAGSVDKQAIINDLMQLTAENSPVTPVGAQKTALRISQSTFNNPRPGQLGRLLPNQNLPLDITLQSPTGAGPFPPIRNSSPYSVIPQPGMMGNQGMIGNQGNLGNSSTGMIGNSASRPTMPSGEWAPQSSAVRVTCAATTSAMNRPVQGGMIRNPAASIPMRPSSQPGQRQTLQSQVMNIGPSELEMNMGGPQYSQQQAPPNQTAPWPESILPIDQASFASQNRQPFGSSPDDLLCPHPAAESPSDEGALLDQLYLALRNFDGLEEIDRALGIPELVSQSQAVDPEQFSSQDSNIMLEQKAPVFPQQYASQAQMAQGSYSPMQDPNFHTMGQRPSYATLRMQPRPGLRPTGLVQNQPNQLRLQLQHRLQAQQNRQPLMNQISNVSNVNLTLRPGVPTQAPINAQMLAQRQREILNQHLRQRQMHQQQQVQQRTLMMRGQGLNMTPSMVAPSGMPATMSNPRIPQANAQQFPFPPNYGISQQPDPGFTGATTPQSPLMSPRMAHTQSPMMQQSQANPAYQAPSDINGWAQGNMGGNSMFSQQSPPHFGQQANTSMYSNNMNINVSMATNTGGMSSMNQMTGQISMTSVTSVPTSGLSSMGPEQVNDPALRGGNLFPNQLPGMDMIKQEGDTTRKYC

[6] = target: Peroxisome proliferator-activated receptor gamma/Nuclear receptor coactivator 3 (Homo sapiens, UniProt P37231); experiment: as §1, with “3 (SRC-3)” for “2 (SRC-2)”, “1301 (Confirmation screen.), 1048 (Primary screen.)]” for “1297, 1032 ]”; format: functional
[7] = target: Peroxisome proliferator-activated receptor gamma/Nuclear receptor coactivator 1 (Homo sapiens, UniProt P37231); experiment: as §1, with “1 (SRC-1)” for “2 (SRC-2)”, “assays (depositor defined):AID1300, AID1808, AID504735, AID631]” for “assays: 1297, 1032 ]”; format: protein assay
Chain of Peroxisome proliferator-activated receptor gamma/Nuclear receptor coactivator 1 (P37231 whole entry): as the sequence (P37231 whole entry) above
Chain of Peroxisome proliferator-activated receptor gamma/Nuclear receptor coactivator 1 (Q15788 whole entry, further chain): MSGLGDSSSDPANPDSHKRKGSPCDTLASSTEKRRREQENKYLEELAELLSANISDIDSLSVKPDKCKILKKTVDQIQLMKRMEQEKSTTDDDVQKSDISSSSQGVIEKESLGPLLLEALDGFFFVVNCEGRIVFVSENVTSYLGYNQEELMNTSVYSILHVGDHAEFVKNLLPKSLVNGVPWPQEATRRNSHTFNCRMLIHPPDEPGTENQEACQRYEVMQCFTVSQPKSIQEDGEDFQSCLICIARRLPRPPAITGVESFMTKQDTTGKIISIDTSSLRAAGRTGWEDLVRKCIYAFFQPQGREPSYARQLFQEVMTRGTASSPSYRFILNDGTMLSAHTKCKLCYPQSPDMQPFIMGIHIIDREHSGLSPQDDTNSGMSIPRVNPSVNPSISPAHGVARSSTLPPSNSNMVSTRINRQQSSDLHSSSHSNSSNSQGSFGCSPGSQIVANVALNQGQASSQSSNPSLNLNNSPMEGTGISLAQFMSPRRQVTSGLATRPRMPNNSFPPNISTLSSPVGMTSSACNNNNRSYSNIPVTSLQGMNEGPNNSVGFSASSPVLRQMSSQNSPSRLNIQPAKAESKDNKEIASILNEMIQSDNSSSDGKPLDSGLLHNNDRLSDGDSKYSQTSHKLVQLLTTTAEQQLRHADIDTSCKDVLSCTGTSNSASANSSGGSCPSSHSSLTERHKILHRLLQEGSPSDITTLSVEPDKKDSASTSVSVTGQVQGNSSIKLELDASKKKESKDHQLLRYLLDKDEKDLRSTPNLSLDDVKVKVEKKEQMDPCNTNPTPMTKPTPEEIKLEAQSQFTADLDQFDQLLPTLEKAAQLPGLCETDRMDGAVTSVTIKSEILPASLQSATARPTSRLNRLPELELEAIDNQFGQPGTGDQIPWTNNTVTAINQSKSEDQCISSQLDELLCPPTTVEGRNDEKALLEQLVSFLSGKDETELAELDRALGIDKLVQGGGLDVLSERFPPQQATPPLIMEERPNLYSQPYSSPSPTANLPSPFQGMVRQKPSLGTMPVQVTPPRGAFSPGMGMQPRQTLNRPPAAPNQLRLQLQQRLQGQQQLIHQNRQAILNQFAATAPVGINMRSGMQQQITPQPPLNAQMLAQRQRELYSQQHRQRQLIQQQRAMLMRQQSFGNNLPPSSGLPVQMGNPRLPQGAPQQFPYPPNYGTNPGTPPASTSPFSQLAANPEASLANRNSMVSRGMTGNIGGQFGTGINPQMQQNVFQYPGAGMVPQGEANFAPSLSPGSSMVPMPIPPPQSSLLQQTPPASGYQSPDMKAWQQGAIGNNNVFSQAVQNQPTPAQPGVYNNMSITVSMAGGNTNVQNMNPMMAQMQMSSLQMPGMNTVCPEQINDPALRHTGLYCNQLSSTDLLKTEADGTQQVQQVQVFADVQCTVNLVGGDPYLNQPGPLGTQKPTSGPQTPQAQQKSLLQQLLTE

[8] = target: E3 ubiquitin-protein ligase Mdm2 (Homo sapiens, UniProt Q00987); experiment: MDM2-luc reporter signal enhancers, multi-concentration potency testing, MDM2 ubiquitin-protein ligase inhibitor program, whole-cell format, luminescence detection, 384-well microplate (AID 1394); format: functional;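 further: MDM2 E3 inhibitors raise luminescence so EC50 is for signal enhancement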
Chain of E3 ubiquitin-protein ligase Mdm2 (Q00987 whole entry): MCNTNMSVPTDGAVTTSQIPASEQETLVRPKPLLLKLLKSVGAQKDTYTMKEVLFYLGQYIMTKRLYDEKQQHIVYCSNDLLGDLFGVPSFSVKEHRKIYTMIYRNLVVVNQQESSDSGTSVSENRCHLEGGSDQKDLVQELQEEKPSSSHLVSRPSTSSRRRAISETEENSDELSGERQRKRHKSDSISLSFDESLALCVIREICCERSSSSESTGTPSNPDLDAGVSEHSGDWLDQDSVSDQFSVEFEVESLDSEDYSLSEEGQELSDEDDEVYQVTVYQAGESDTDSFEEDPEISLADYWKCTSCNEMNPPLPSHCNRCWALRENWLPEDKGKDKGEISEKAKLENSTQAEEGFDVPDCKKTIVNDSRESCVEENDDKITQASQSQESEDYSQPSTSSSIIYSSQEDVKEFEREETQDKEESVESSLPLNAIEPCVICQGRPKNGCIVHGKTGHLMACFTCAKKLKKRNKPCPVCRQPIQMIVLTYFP

[9] = toxicity to human hepatoma HepG2 cells – cell-based, cherry-picked samples, cytotoxicity control, dose response (AID 1159577); format: functional
[10] = P. falciparum Dd2 growth inhibitors, dose response, SYBR Green, cherry-picked samples (AID 1159567); format: functional, cell-based
[11] = blockers of CRF-binding protein–CRF-R2 complex – cell-based, uHTS hits, 384-well, dose response (AID 651639); format: functional, Homo sapiens; details: read-out: IC50_Mean
Streptococcus = experiment: GAS UMAA2166 growth inhibition – luminescence, BacTiterGlo, counter-screen for streptokinase expression inhibitor project, dose response (AID 1915); format: functional, organism-based;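 further: potency for reduction of bacterial viability or growth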
[12] = tested on: Streptococcus sp. 'group A'; experiment: Streptococcus pyogenes SK(-)GAS viability under kanamycin – luminescence, BacTiterGlo, confirmation, counter-screen for streptokinase expression inhibitor project, dose response (AID 1900); format: functional, organism-based

Chain of Mitogen-activated protein kinase 10 (P53779 whole entry): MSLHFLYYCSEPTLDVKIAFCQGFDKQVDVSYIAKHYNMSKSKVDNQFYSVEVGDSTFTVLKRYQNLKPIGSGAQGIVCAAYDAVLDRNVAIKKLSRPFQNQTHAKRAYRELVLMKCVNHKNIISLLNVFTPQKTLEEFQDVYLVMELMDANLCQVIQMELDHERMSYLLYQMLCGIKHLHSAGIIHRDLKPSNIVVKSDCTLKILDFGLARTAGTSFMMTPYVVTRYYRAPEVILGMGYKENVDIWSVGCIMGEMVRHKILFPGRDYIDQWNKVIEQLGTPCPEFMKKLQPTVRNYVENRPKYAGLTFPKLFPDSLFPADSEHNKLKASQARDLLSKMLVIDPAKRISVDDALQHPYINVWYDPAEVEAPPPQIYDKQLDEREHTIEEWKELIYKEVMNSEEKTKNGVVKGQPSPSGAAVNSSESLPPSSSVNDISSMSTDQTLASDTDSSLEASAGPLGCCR

COc1cc(C(=O)NCc2cn3ccsc3n2)cc(OC)c1OC
IC50 [1]: 53.1 µM (not active)

Nc1nc(Sc2ccc([N+](=O)[O-])c3nonc23)c2nc[nH]c2n1
AC50 [2]: 1.17 µM (active) | CC50 (Vero): 5.9 µM (active) | CC50 [3]: 0.68 µM (active)

Fc1ccc(Nc2cncc(-c3ccsc3)c2)cc1Cl
IC50 [4]: 13.6 µM (inactive)

Fc1ccccc1CSc1ncnc2c1oc1ccccc12
EC50 [5]: 20 µM (not active) | EC50 [6]: > 79.4 µM (not active) | EC50 [7]: 44.1 µM (inactive)

O=C(CSc1ccc(-c2ccco2)nn1)NC1CCCC1
EC50 [8]: 0.75 µM (not active)

N#C[C@@H]1[C@@H](c2ccc(C#Cc3ccc(F)cc3)cc2)[C@H](CO)N1C(=O)C1CCC1
AC50 [9]: > 39 µM (inactive) | AC50 [10]: 6.15 µM (active)

COc1ccc(C2C(C(=O)NCc3ccco3)CCC(=O)N2c2ccc(OC)cc2)cc1 (stereo not given)
IC50 [1]: > 93.1 µM (not active)

O=C(Nc1ccncc1)Nc1ccncc1
EC50 [8]: 8.86 µM (not active)

O=C(c1ccccc1)c1nc[nH]c1C(=O)Nc1ccccn1
IC50 [1]: > 93.1 µM (not active)

Cc1ccccc1S(=O)(=O)Nc1nc2ccccc2nc1N1CCOCC1
EC50 [5]: 11.8 µM (not active) | EC50 [6]: > 79.4 µM (not active) | EC50 [7]: 10.1 µM (inactive)

Cc1cc(O)nc(SCC(=O)Nc2ccc(Br)cc2)c1C#N
IC50 [11]: 15.4 µM (active) | EC50 (Streptococcus): 20.1 µM (active) | EC50 [12]: 6.89 µM (active)
